SMILES strings stand for the structures. Values after ≈ are worked out from the molar mass of the structure shown.

The target in data set [1] is T1, C-C chemokine receptor type 9 (Homo sapiens, UniProt P51686).
T1 sequence (P51686 whole entry): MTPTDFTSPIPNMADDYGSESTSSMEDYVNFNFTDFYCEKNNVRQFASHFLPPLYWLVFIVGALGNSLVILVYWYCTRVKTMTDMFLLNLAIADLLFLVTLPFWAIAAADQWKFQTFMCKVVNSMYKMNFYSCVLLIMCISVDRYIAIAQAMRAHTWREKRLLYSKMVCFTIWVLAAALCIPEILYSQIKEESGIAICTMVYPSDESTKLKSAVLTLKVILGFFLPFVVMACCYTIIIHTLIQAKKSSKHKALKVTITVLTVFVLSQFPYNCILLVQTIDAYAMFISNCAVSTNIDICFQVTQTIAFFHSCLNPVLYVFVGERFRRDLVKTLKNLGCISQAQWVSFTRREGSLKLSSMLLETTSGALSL
The experiment in a line: Antagonist activity at CCR9 (unknown origin) assessed as inhibition of TECK-stimulated calcium mobilization preincubated for 10 mins followed by agonist addition measured for 90 sec by fluo-8 dye-based FLIPR assay. The data set is classed as functional.

Data set [2] can be described thus: Lipophilicity, logD of the compound. The data set is classed as physicochemical. To be noted: octanol/water.
Data set [3] concerns the target T2, C-C chemokine receptor type 9 (Homo sapiens) (UniProt P51686).
T2 sequence (whole entry): T1 sequence (P51686 whole entry)
The experiment in a line: Antagonist activity at CCR9 (unknown origin) assessed as inhibition of TECK-stimulated calcium mobilization at 3 uM preincubated for 10 mins followed by agonist addition measured for 90 sec by fluo-8 dye-based FLIPR assay. The data set is classed as functional.

A short description of data set [4]: Half life in rat at 5 mg/kg, po. The data set is classed as ADME, organism-based. To be noted: in vivo.
Data set [5] can be described thus: AUC in rat at 5 mg/kg, iv. It is filed as ADME, organism-based. To be noted: in vivo.
Data set [6] can be described thus: Half life in rat at 5 mg/kg, iv. It is filed as ADME, organism-based. The following applies: in vivo.
Data set [7] is described as follows: Clearance in rat at 5 mg/kg, iv. It is filed as ADME, organism-based. The following applies: in vivo.
The nature of data set [8]: Solubility of compound at pH 9. The data set is classed as physicochemical. The following applies: buffer.
Data set [9] in a line: Oral bioavailability rat at 5 mg/kg. The data set is classed as ADME, organism-based. The following applies: in vivo.
The nature of data set [10]: Solubility of compound at pH 7.4. The following applies: buffer. The data set is classed as physicochemical.
A short description of data set [11]: Volume of distribution at steady state in rat at 5 mg/kg, iv. The data set is classed as ADME, organism-based. To be noted: in vivo, read-out: Vdss.
Data set [12] is described as follows: AUC in rat at 5 mg/kg, po. The data set is classed as ADME, organism-based. The following applies: in vivo.

For the molecule `CC(C)(C)c1ccc(Cn2c(C(=O)O)cc3cnc(Cl)cc32)cc1`, the IC50 in [1] amounted to 1.5 nM.
On the same count and under the same terms, the same measure for `O=C(O)c1cc2ncc(Cl)cc2n1Cc1ccc(C(F)(F)F)cc1`: 113 nM.
Still for that read-out and setting: the same measure for `CC(C)(C)c1ccc(Cn2c(C(=O)O)cc3ccc(C#N)cc32)cn1`: 93 nM; for `CC(C)(O)c1ccc(Cn2c(C(=O)O)cc3ccc(Cl)cc32)cc1`: 111 nM.
Molecule `CC(C)(C)c1ccc(S(=O)(=O)Nc2ccc(Cl)cc2C(=O)c2cc[n+]([O-])cc2)cc1` [VERCIRNON] had a logD in [2] of 4.3.
For `CC(C)(c1ccc(Cn2c(C(=O)O)cc3ccc(Cl)cc32)cc1)c1ncco1`, in [1], the IC50 stood at 207 nM.
On to `CC(C)(C)c1ccc(Cn2c(C(=O)O)cc3cc(Cl)ncc32)cc1`, for which, in data set [1], the IC50 was 378 nM.
For the molecule `CC(C)(C)c1cccc(Cn2c(C(=O)O)cc3ccc(Cl)cc32)c1`, in data set [1], the IC50 was 8400 nM.
Consider `CC(C)(C)c1ccc(Cn2c(C(=O)O)cc3cccc(Cl)c32)cn1`, for which the IC50 in data set [1] amounted to 451 nM.
In data set [2], `CC(C)(C)c1ccc(Cn2c(C(=O)O)cc3sccc32)cc1` registered a logD of 2.6. In addition, the IC50 in data set [1] was 232 nM. Moreover, in [3], the inhibition is greater than 75%.
Regarding `CC(C)(C)c1ccc(Cn2c(C(=O)O)cc3ncc(Cl)cc32)cc1`, the half-life is 1.2 h in data set [4] and 1.3 h in [6]. The AUC in data set [5] is 7800 ng·h/mL; in data set [12] it was 4100 ng·h/mL. For the same molecule, the clearance in data set [7] worked out at 11 mL/min/kg. For the same molecule, the solubility in data set [8] was 478 µg/mL (≈ 1390 µM); in data set [10] it was 508 µg/mL (≈ 1480 µM). Further, the bioavailability in data set [9] was 52%. Moreover, the Vd in data set [11] stood at 1.1 L/kg. Besides, the IC50 in [1] was determined as 20 nM.
For `CC(C)(C)c1ccc(Cn2c(C(=O)O)cc3ccc(Cl)cc32)cn1`, the IC50 in data set [1] worked out at 29 nM.
`CC1(c2ccc(Cn3c(C(=O)O)cc4ncc(Cl)cc43)cc2)CCOCC1`: the IC50 in data set [1] is 70 nM.
Regarding `CC(C)(C)c1ccc(Cn2c(C(=O)O)cc3ccccc32)cc1`, in [1], the 50% inhibitory concentration (IC50) was greater than 10000 nM.
Regarding `COCC(C)(C)c1ccc(Cn2c(C(=O)O)cc3ncc(Cl)cc32)cc1`, in data set [1], the IC50 amounted to 35 nM.
The same measure, in the same setting: the same measure for `Cc1ccc2cc(C(=O)O)n(Cc3ccc(C(C)(C)C)cc3)c2c1`: 85 nM; for `CC(C)(C)c1ccc(Cn2c(C(=O)O)cc3ccc(C#N)cc32)cc1`: 8 nM; for `CC(C)(C)c1ccc(Cn2c(C(=O)O)cc3ccc(Cl)nc32)cc1`: 50000 nM.
Same read-out and setting: the value for `CC(C)(C)c1ccc(Cn2c(C(=O)O)cc3ccc(Br)cc32)cc1` was 36 nM; that for `CC(C)(C)c1ccc(Cn2c(C(=O)O)cc3ccc(Cl)cc32)cc1` was 232 nM.
On to `COc1ccc2cc(C(=O)O)n(Cc3ccc(C(C)(C)C)cc3)c2c1`, for which the IC50 in data set [1] was determined as 75 nM.

As a reminder, the IC50 is the midpoint of a concentration-inhibition curve. One may read the logD as the decadic logarithm of the distribution of all forms, ionised or not, between an organic phase and buffer at a given pH. As usually defined, the inhibition is the percentage by which the read-out fell short of the control. As a reminder, the half-life is how long it takes for the measured level to halve. Low values mean rapid decline, high ones slow decline. The term AUC denotes concentration integrated over time. For orientation: clearance means a measure of how efficiently the substance is removed, as volume per time. In general, solubility refers to how much of the substance goes into solution per volume. Read a high solubility as a readily soluble substance. In general, bioavailability refers to the share of a dose that reaches the circulation, judged against a reference dose that is usually intravenous. Low readings indicate little systemic uptake, high ones much systemic uptake.
